Assay results: ChEMBL document CHEMBL4680099, “Discovery of Leucyladenylate Sulfamates as Novel Leucyl-tRNA Synthetase (LRS)-Targeted Mammalian Target of Rapamycin Complex 1 (mTORC1) Inhibitors” (J Med Chem, 2016)
The source made the active and inactive calls. The calls are words filed in the database; no cut-off is given here.

Legend:
[1] = biological target: T1, Leucine--tRNA ligase, cytoplasmic (Homo sapiens, UniProt Q9P2J5); assay: Inhibition of catalytic activity of LRS in HEK293 cells assessed as reduction in mTORC1 activation by measuring leucine-induced S6K phosphorylation at 12.5 to 200 uM by immunoblotting analysis; format: cell-based; conditions: dose 12.5-200 µM
Target sequence in this assay (Q9P2J5 whole entry, looked up): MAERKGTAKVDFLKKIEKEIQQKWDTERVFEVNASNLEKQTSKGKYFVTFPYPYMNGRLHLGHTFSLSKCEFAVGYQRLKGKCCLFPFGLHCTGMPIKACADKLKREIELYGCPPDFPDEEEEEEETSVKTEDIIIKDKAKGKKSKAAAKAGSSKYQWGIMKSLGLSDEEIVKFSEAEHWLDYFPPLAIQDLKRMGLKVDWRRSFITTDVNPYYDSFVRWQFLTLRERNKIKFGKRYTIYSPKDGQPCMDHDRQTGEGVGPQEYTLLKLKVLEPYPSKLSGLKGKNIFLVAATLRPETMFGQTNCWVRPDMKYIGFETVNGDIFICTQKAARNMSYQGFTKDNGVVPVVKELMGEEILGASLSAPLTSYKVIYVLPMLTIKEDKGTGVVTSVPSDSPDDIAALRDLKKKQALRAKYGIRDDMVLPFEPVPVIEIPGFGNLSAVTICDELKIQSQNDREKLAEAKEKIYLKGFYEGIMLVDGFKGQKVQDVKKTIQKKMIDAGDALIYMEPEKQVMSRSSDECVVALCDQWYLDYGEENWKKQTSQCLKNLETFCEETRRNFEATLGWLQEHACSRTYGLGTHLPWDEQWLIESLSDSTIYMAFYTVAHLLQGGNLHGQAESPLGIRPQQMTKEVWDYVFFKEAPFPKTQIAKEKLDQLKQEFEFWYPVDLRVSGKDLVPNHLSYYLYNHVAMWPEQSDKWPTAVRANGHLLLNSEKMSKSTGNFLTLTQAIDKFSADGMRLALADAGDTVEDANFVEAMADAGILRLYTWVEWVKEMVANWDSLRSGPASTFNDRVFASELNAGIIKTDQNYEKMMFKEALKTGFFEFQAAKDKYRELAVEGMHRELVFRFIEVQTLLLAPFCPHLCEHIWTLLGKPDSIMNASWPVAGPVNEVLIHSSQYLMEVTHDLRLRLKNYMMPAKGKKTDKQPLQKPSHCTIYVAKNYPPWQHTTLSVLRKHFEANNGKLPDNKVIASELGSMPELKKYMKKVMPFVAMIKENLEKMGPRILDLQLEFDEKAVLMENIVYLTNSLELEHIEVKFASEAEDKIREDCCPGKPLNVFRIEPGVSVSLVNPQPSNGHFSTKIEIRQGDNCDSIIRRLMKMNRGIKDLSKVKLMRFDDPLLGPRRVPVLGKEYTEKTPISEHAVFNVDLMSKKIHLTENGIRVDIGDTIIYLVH

MRC5 = assay: Cytotoxicity in human MRC5 cells by sulforhodamine B colorimetric assay; format: cell-based
SK-HEP1 = assay: Cytotoxicity in human SK-HEP1 cells by sulforhodamine B colorimetric assay; format: functional, cell-based
A549 = assay: Cytotoxicity in human A549 cells by sulforhodamine B colorimetric assay; format: functional, cell-based
SNU-638 = assay: Cytotoxicity in human SNU-638 cells by sulforhodamine B colorimetric assay; format: functional, cell-based
MDA-MB-231 = assay: Cytotoxicity in human MDA-MB-231 cells by sulforhodamine B colorimetric assay; format: functional, cell-based
[2] = biological target: T1, Leucine--tRNA ligase, cytoplasmic; assay: Inhibition of catalytic activity of LRS (unknown origin) by aminoleucylation assay
Target sequence in this assay (Q9P2J5 whole entry): as the sequence (Q9P2J5 whole entry, looked up) above

K562 = assay: Cytotoxicity in human K562 cells by sulforhodamine B colorimetric assay; format: functional, cell-based
HCT-116 = assay: Cytotoxicity in human HCT-116 cells by sulforhodamine B colorimetric assay; format: functional, cell-based
mTORC1 (Homo sapiens) [3] = biological target: T2, mTORC1 (Homo sapiens) (UniProt P42345+Q8N122+Q9BVC4); conditions: HEK293, dose 100.0 nM
Description: Inhibition of mTORC1 activation in HEK293 cells assessed as reduction leucine-induced S6K phosphorylation at 100 nM by immunoblotting analysis

mTORC1 (Homo sapiens) [4] = biological target: T2, mTORC1 (Homo sapiens); assay: Inhibition of flag-tagged mTORC1 (unknown origin) at 200 uM; format: protein-complex assay

T2 sequence (Q8N122 whole entry, looked up, other chains not shown): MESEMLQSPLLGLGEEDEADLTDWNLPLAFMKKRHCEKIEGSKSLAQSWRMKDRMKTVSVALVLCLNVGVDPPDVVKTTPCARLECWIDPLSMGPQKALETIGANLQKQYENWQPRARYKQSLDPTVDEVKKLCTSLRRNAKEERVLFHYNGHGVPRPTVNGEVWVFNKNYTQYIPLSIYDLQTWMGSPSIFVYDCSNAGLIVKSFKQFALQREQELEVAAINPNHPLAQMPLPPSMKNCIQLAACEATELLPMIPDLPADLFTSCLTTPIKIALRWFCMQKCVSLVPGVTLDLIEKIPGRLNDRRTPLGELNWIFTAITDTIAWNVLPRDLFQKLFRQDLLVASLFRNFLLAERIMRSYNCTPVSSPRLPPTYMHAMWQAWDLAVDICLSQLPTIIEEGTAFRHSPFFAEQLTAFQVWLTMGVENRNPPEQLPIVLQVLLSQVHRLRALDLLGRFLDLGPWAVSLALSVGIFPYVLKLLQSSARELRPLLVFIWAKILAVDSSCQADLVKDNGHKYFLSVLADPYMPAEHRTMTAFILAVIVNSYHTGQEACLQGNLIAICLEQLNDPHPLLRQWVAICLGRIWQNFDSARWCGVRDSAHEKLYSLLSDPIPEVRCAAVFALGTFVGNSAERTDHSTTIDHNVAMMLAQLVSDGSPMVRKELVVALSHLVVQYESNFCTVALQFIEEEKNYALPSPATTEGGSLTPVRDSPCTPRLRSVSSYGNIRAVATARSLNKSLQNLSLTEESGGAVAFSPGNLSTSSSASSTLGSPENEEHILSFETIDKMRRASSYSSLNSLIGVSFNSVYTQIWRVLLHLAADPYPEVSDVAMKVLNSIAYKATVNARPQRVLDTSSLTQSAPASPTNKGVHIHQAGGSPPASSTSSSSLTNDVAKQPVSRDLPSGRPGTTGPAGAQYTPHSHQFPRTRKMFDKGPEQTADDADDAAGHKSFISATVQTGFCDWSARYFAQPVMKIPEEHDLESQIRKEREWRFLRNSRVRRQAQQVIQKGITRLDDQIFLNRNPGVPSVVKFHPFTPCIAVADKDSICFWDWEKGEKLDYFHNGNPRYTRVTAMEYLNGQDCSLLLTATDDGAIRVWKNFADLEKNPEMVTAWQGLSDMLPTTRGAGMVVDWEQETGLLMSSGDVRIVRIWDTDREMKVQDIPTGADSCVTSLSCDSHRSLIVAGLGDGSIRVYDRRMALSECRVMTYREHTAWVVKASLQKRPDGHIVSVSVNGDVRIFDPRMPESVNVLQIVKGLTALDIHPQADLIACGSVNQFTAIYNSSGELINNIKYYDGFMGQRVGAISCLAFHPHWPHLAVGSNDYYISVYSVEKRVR
T2 sequence (Q9BVC4 whole entry, looked up, other chains not shown): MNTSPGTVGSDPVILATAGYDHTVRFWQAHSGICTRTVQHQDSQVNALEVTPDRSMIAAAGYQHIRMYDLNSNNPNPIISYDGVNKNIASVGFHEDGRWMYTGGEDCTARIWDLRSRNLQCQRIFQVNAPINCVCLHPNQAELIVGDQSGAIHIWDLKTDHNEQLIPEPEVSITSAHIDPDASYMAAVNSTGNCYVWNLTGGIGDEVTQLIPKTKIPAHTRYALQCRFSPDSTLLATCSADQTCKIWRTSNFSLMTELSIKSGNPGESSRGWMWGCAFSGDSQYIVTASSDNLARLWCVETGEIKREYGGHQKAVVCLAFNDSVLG

Structure (SMILES) | inhibition [1] | IC50 (MRC5) | IC50 (SK-HEP1) | IC50 (A549) | IC50 (SNU-638) | IC50 (MDA-MB-231) | IC50 [2] | IC50 (K562) | IC50 (HCT-116) | inhibition (mTORC1 (Homo sapiens) [3]) | inhibition (mTORC1 (Homo sapiens) [4])
CC(C)C[C@H](N)C(=O)NS(=O)(=O)OC[C@H]1O[C@@H](n2cnc3c(N)ncnc32)[C@H](O)[C@@H]1O [LEUSA] | inactive | 5.9 µM | 0.54 µM | 0.59 µM | 0.84 µM | 0.73 µM | 0.0223 µM | 0.4 µM | 0.24 µM | – | –
COc1cc([C@@H]2c3cc4c(cc3[C@@H](O[C@@H]3O[C@@H]5CO[C@@H](C)O[C@H]5[C@H](O)[C@H]3O)[C@H]3COC(=O)[C@H]23)OCO4)cc(OC)c1O [ETOPOSIDE] | – | – | 0.25 µM | 0.24 µM | 0.56 µM | 7.35 µM | – | 1.79 µM | 1.25 µM | – | –
CO[C@H]1C[C@@H]2CC[C@@H](C)[C@@](O)(O2)C(=O)C(=O)N2CCCC[C@H]2C(=O)O[C@H]([C@H](C)C[C@@H]2CC[C@@H](O)[C@H](OC)C2)CC(=O)[C@H](C)/C=C(\C)[C@@H](O)[C@@H](OC)C(=O)[C@H](C)C[C@H](C)/C=C/C=C/C=C/1C | – | – | – | – | – | – | – | – | – | Active | –
CC(C)C[C@H](O)C(=O)NS(=O)(=O)OC[C@H]1O[C@@H](n2cnc3c(N)nc(I)nc32)[C@H](O)[C@@H]1O | Dose-dependent effect | > 50 µM | 5.63 µM | 1.75 µM | 5.7 µM | 12.6 µM | 0.337 µM | 1.06 µM | 0.54 µM | – | inactive
CC(C)[C@@H](O)[C@H](O)C(=O)NS(=O)(=O)OC[C@H]1O[C@@H](n2cnc3c(N)ncnc32)[C@H](O)[C@@H]1O | Dose-dependent effect | > 50 µM | 6.81 µM | 1.64 µM | 8.98 µM | 7.01 µM | 0.07 µM | 2.22 µM | 1.44 µM | – | inactive
